Measured values published in ChEMBL document CHEMBL3526086, “Identification of the oxidative and conjugative enzymes involved in the biotransformation of brivanib” (Drug Metab Dispos, 2012).

Tests used:
Type in all cases: ADME
Cytochrome P450 2C8 [1] = target: T1, Cytochrome P450 2C8 (Homo sapiens, UniProt P10632); test: Drug metabolism in human liver microsomes assessed as 3 uM montekulast-mediated inhibition of CYP2C8-mediated (R)-1-(4-(4-fluoro-2-(hydroxymethyl)-1H-indol-5-yloxy)-5-methylpyrrolo[1,2-f][1,2,4]triazin-6-yloxy)propan-2-ol formation at 2 and 20 uM for 30 mins by LC/MS analysis; settings: 0.5 h
T1 sequence (P10632 whole entry): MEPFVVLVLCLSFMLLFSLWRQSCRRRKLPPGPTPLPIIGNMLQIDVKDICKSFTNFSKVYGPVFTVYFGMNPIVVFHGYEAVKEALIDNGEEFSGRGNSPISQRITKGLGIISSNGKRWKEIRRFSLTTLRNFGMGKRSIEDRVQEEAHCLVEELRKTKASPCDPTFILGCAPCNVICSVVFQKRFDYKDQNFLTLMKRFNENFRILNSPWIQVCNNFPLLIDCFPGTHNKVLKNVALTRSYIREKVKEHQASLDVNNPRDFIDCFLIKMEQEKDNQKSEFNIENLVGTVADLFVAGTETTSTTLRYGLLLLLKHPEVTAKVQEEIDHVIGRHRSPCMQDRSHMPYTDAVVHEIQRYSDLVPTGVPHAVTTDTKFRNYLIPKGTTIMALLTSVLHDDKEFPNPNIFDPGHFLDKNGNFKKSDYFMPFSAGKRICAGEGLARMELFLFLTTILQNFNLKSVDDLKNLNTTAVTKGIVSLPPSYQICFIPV

Cytochrome P450 2B6 = target: T2, Cytochrome P450 2B6 (Homo sapiens, UniProt P20813); test: Drug metabolism assessed as human CYP2B6-mediated (R)-1-(4-(4-fluoro-2-(hydroxymethyl)-1H-indol-5-yloxy)-5-methylpyrrolo[1,2-f][1,2,4]triazin-6-yloxy)propan-2-ol formation at 2 and 20 uM for 20 mins by LC/MS analysis in presence of NADPH; settings: recombinant enzyme
T2 sequence (P20813 whole entry): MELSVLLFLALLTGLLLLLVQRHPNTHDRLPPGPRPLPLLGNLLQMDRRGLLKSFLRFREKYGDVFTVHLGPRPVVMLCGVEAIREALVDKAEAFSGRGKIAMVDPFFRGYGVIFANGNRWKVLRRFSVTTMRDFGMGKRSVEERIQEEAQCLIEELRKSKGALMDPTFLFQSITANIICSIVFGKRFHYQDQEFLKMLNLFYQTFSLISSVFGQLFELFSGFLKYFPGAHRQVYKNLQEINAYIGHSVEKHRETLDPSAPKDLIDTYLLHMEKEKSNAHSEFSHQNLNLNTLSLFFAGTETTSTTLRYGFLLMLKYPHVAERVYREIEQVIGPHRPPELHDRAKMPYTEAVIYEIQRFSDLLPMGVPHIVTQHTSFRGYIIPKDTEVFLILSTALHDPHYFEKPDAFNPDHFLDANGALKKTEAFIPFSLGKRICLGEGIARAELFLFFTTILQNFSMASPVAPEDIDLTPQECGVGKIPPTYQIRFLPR

Sulfotransferase 1A1 = Sulfotransferase 1A1 (Homo sapiens, UniProt P50225); test: Drug metabolism assessed as human SULT1A1-mediated (R)-1-(4-(4-fluoro-2-methyl-1H-indol-5-yloxy)-5-methylpyrrolo[1,2-f][1,2,4]triazin-6-yloxy)propane-2-sulfonic acid formation at 2 and 20 uM for 30 mins by LC/MS analysis in presence of PAPS; settings: 0.5 h
Cytochrome P450 3A4 = Cytochrome P450 3A4 (Homo sapiens, UniProt P08684); test: Drug metabolism assessed as human CYP3A4-mediated (R)-1-(4-(4-fluoro-2-(hydroxymethyl)-1H-indol-5-yloxy)-5-methylpyrrolo[1,2-f][1,2,4]triazin-6-yloxy)propan-2-ol formation at 2 and 20 uM for 20 mins by LC/MS analysis in presence of NADPH; settings: recombinant enzyme
Cytochrome P450 2A6 = target: T3, Cytochrome P450 2A6 (Homo sapiens, UniProt P11509); test: Drug metabolism in human liver microsomes assessed as monoclonal antibody-mediated inhibition of CYP2A6-mediated (R)-1-(4-(4-fluoro-2-(hydroxymethyl)-1H-indol-5-yloxy)-5-methylpyrrolo[1,2-f][1,2,4]triazin-6-yloxy)propan-2-ol formation at 2 and 20 uM for 30 mins by LC/MS analysis; settings: 0.5 h
T3 sequence (P11509 whole entry): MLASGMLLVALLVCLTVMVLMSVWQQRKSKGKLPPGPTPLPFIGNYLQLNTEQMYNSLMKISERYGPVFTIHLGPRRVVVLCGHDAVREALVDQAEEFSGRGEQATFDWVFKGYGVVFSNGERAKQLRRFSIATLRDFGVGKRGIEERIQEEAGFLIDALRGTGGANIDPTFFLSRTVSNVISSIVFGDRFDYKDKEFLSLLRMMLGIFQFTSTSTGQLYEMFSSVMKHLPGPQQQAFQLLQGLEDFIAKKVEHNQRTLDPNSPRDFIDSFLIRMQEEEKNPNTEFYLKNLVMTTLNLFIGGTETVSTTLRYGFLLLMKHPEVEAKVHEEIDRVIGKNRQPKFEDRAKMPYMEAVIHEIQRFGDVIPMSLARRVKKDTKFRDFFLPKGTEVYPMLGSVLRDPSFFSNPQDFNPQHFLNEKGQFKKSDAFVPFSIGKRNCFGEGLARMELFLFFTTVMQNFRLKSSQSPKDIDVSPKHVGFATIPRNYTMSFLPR

Cytochrome P450 2C9 [2] = target: T4, Cytochrome P450 2C9 (Homo sapiens, UniProt P11712); test: Drug metabolism in human liver microsomes assessed as 10 uM sulfaphenazole-mediated inhibition of CYP2C9-mediated (R)-1-(4-(4-fluoro-2-(hydroxymethyl)-1H-indol-5-yloxy)-5-methylpyrrolo[1,2-f][1,2,4]triazin-6-yloxy)propan-2-ol formation at 2 and 20 uM for 30 mins by LC/MS analysis; settings: 0.5 h
Cytochrome P450 2D6 = Cytochrome P450 2D6 (Homo sapiens, UniProt P10635); test: Drug metabolism in human liver microsomes assessed as monoclonal antibody-mediated inhibition of CYP2D6-mediated(R)-1-(4-(4-fluoro-2-(hydroxymethyl)-1H-indol-5-yloxy)-5-methylpyrrolo[1,2-f][1,2,4]triazin-6-yloxy)propan-2-ol formation at 2 and 20 uM for 30 mins by LC/MS analysis; settings: 0.5 h
Sulfotransferase 1B1 = Sulfotransferase 1B1 (Homo sapiens, UniProt O43704); test: Drug metabolism assessed as human SULT1B1-mediated (R)-1-(4-(4-fluoro-2-methyl-1H-indol-5-yloxy)-5-methylpyrrolo[1,2-f][1,2,4]triazin-6-yloxy)propane-2-sulfonic acid formation at 2 and 20 uM for 30 mins by LC/MS analysis in presence of PAPS; settings: 0.5 h
Cytochrome P450 2C9 [3] = target: T4, Cytochrome P450 2C9; test: Drug metabolism in human liver microsomes assessed as monoclonal antibody-mediated inhibition of CYP2C9-mediated (R)-1-(4-(4-fluoro-2-(hydroxymethyl)-1H-indol-5-yloxy)-5-methylpyrrolo[1,2-f][1,2,4]triazin-6-yloxy)propan-2-ol formation at 2 and 20 uM for 30 mins by LC/MS analysis; settings: 0.5 h
Cytochrome P450 2C8 [4] = target: T1, Cytochrome P450 2C8; test: Drug metabolism assessed as human CYP2C8-mediated (R)-1-(4-(4-fluoro-2-(hydroxymethyl)-1H-indol-5-yloxy)-5-methylpyrrolo[1,2-f][1,2,4]triazin-6-yloxy)propan-2-ol formation at 2 and 20 uM for 20 mins by LC/MS analysis in presence of NADPH; settings: recombinant enzyme

Measured: Drug metabolism

T4 sequence (P11712 whole entry): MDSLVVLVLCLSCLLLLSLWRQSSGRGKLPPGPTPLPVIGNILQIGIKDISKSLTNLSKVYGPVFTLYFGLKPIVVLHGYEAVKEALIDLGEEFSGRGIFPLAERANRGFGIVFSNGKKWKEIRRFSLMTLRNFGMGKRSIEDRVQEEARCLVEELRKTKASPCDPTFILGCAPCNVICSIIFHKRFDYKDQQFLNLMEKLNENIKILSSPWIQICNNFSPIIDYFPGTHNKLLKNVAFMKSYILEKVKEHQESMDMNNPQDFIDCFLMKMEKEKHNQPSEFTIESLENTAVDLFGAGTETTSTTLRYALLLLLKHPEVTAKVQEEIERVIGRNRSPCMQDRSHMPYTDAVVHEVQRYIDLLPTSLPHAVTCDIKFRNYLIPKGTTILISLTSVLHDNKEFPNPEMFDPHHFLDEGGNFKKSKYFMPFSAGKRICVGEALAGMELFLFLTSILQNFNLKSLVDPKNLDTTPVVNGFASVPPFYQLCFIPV
Cytochrome P450 3A4, sequence (P08684 whole entry): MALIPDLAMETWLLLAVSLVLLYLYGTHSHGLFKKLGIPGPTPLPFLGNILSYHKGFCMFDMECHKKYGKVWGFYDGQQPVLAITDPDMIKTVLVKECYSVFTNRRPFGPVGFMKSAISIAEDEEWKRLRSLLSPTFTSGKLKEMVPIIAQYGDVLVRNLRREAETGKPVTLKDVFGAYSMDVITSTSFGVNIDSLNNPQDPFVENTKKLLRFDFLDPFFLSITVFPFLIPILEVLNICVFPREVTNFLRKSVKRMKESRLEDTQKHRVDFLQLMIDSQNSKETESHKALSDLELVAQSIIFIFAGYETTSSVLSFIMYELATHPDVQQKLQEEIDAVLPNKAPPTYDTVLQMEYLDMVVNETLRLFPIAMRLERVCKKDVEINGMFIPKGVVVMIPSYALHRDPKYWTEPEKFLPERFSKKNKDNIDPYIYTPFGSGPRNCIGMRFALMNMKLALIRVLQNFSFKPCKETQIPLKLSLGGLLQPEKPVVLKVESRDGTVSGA
Sulfotransferase 1A1, sequence (P50225 whole entry): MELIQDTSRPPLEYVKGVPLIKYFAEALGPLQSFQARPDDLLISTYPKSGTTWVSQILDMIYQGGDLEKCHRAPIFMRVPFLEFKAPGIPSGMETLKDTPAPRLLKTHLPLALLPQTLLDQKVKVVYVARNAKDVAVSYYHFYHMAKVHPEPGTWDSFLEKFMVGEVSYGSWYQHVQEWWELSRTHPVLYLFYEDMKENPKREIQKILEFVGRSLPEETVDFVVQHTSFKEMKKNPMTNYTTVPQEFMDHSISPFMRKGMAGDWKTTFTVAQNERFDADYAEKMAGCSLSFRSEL
Cytochrome P450 2D6, sequence (P10635 whole entry): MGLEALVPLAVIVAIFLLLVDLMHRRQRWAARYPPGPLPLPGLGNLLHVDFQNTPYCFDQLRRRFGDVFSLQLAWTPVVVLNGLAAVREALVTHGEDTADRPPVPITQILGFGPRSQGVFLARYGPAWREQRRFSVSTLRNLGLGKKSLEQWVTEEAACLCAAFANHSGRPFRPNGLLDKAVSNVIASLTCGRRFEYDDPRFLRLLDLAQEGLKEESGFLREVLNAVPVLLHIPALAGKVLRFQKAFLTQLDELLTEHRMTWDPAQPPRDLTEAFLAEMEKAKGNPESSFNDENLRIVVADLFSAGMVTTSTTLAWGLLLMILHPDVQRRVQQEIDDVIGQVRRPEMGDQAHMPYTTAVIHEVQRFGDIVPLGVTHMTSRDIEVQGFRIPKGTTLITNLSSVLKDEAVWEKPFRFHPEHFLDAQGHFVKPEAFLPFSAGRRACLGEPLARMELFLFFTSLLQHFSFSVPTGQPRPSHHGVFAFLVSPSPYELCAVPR
Sulfotransferase 1B1, sequence (O43704 whole entry): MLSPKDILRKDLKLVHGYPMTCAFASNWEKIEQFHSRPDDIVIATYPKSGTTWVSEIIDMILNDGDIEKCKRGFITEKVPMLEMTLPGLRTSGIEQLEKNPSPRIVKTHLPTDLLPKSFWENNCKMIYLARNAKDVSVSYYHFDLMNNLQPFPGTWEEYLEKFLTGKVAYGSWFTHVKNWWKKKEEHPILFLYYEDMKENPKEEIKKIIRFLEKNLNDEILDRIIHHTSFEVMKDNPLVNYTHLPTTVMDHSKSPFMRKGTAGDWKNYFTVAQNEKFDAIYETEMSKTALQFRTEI

Cc1cc2c(F)c(Oc3ncnn4cc(OC[C@@H](C)O)c(C)c34)ccc2[nH]1 [BRIVANIB]
metabolite_detected: all assays above
